From patent US11571421B2, “GABAA positive allosteric modulator compounds for treatment of itch and/or dermatitis” (NeuroCycle Therapeutics, Inc., priority 2018, dated 2023)

Assays:
Format in all cases: in vivo
Male C57BL/6 Mice [1] = assay: Sedation, behavioral change and clinical signs observed in Example 1
Experimental: Animals were dosed per oral with respective treatment group using a dose volume of 10 ml/kg. Times of dosing were recorded. Immediately after compound treatment, animals were kept in an empty transparent chamber (23 cm length×17 cm width) for acclimatization and observation.
Ninety (90) minutes post compound dosing, 50-μl of chloroquine phosphate solution (a 200-μg dose) was injected intracutaneously into the animal's right cheek. Animals were returned to the same chamber for observation. Animals were observed by an observer blind to the treatment group for a period of 30 minutes post chloroquine injection. Total number of bouts of scratching directed at the ipsilateral cheek were recorded for 30 minutes.

[2] = system: Dry Itch Model in Male C57BL/6 Mice; assay: Dry skin itch model (Example 8); conditions: 10 mg/kg intraperitoneal; 15 to 210 min after injection
Experimental: In order to assess the antipruritic effect of PF-06372865 in another clinically relevant disease, the dry skin model of dermatitis is used. In the dry skin model, mice are treated with a mixture of acetone and diethylether (1:1) on the shaved nape of the neck for 15 s, followed by distilled water for 30 sec, twice daily for 10 days. On the day of the experiment, mice received intraperitoneal injection of vehicle or PF-06372865 (10 mg/kg). The number of scratching bouts directed to the nape of the neck between 15 to 210 min after injection are recorded.

Male C57BL/6 Mice [3] = assay: Sedative effects, open field arena activity (Example 4); conditions: per oral 1, 3, 10, 30 and 100 mg/kg; recorded for one hour starting one hour after injection
Experimental: In order to exclude any sedative effects PF-06372865 might have on mice, a dose-response experiment is included. The mice receive per oral injections of PF-06372865 in varying doses (vehicle, 1, 3, 10, 30 and 100 mg/kg). After injection, the mice are placed in an open field arena and their activity is recorded for one hour starting one hour after injection.

[4] = system: Oxazolone-Induced Dermatitis Model in male C57BL/6 mice; assay: Repeat dose Oxazolone-Induced Dermatitis Model (Example 10)
Experimental: Male C57BL/6 Mice (8-10 weeks) are used in the study. Mice are housed one per cage and are maintained at controlled environmental conditions with 12-h light and dark cycles. The temperature and humidity of the room are maintained between 22±3° C. and 55±5%, respectively. The maximum and minimum temperature and relative humidity in the experimental rooms are recorded once daily.
NCT10004 phosphate (adjusted with salt correction factor) is weighed into a clean glass container. 0.5% Methyl Cellulose (MC) is added, and the resulting mixture is mixed well using mild vortexing and stirred for 40 minutes to provide a homogeneous suspension.
PF-06372865 is weighed into a clean mortar. […]
Animals are dosed with respective treatment groups for fourteen consecutive Days (From Day 17-Day 30). To quantify any changes in the severity of skin lesions, Animals are assigned dermatitis scores prior to dosing and daily there after starting from Day 17 and ending on Day 30.
Skin lesion are observed and scored as follows: Hemorrhage/erythema, dryness/scaling and hyperplasia are scored as 0 (none), 1 (mild), 2 (moderate) or 3 (severe) once per day resulting in a composite score between 0 and 9. […]
Animals are observed by an observer blind to the treatment group for a period of 210 minutes post Oxazolone application. Number of scratching bouts directed to the nape between 15 to 210 min after dosing are recorded. […]

[5] = system: Non-Histamine-Induced Itch Model in Male C57BL/6 Mice; assay: Non-Histamine (chloroquine)-Induced Itch Model (Example 5); conditions: oral gavage 90 min before chloroquine; 1, 3, 10, 30 and 100 mg/kg
Experimental: The mice are dosed with PF-06372865 by oral gavage ninety (90) minutes before chloroquine injection. Doses of PF-06372865 are 1, 3, 10, 30 and 100 mg/kg.

[6] = system: Bile Acid Itch Model in Male C57BL/6 Mice; assay: Bile acid (deoxycholic acid) induced itch model (Example 9); conditions: 10 mg/kg oral gavage 90 min before deoxycholic acid (25 μg)
Experimental: In order to assess the antipruritic effect of PF-06372865 in another clinically relevant disease, the bile acid induced itch model is used. In the bile acid induced itch model, the fur at the base of the neck is shaved, and mice are placed in individual cylinders on a glass shelf. Mice are acclimatized to the experimental room, restraint apparatus and investigators for 2-hour periods on 2 successive days before experiments. The mice are dosed with 10 mg/kg PF-06372865 by oral gavage ninety (90) minutes before they are injected with deoxycholic acid. Deoxycholic acid (25 μg in DMSO), is administered by intradermal injection at the nape of the neck. Scratching behavior is quantified by 2 observers unaware of tested agents. A scratch is defined as lifting the hind limb to the injection site and then a placing of the paw on the floor, regardless of the number of strokes. If counts differed by greater than 5 scratches over a 30-minute period, both observers reevaluate the records. The number of scratching bouts directed to the nape of the neck between 15 to 210 min after injection are recorded.

In the case of `CCn1cnc2c(-c3ccc(F)c(-c4ccc(S(=O)(=O)CC)cc4OC)c3)cnnc21` [PF-06372865], the sedation (Male C57BL/6 Mice [1]; 3 mg/kg PO) is reported as “Minimal sedation”, the “other behavioral change or clinical sign” value (Male C57BL/6 Mice [1]; any of the PF-06372865 treatment groups (0.3-30 mg/kg PO)) is reported as “No other behavioral change or clinical sign were observed” and the sedation (Male C57BL/6 Mice [1]; at 10 mg/kg and 30 mg/kg PO) is reported as “Dose dependent increase in sedation”. The “scratching bouts compared to vehicle injection” value [2] was “significant reduction in scratching bouts”, the “open field activity compared to vehicle” value (Male C57BL/6 Mice [3]) was “significant increase in activity” and the “skin lesions (lesion score)” value ([4]; 1 mg/kg BID PO, Day 17-Day 30) was “decreases skin lesions comparable to the NCT10004”. For the same compound, the scratching bouts ([4]; 1 mg/kg PO, 15-210 minutes) was “reduces scratching bouts”, the “scratching bouts, chloroquine-induced itch” value [5] was “dose-dependent reduction of scratching bouts” and the “scratching bouts compared to vehicle injection” value [6] was “significant reduction in scratching bouts”.
